Laboratory results published in patent US7071359B1, “Neuropathy improvers containing nitrogenous compounds as the active ingredient” (Teijin Limited, priority 1999, dated 2006).
“And” between values parts separate entries of the source, which are not always exact repeats. Equal entries are not always repeated.

How the values were obtained:
[1] = tested on: Mouse neuroblastoma Neuro2A cells; test: Promotion activity on the neurite outgrowth (1): proportion of cells with extended neurite; assay type: cell-based; settings: for Proportion of cells with neurite (%) mean value ± standard error: 10 nM
Protocol: (§1) Mouse neuroblastoma Neuro2A cells (obtained from DAINIPPON PHARMACEUTICAL CO., LTD.) were suspended with a density of 2.5×10^4 cells/mL in DMEM containing 10% FCS and 2 mM of Gln, and were plated on commercially available 24-well tissue culture plates with a quantity of 400 μL/well. After an overnight culture under the conditions where the temperature was 37° C., and the carbon dioxide content of the air was 5%, the media was exchanged to an identical media containing the test compound, and the culture was further continued for 24 hours. Then microscope photographs were taken with a 20× lens. Using the photographs, by counting the total number of cells in the field of view and the number of cells with extended neurite, the proportion of cells with extended neurite is calculated.

[2] = tested on: Bovine cerebral capillary endothelial cells; test: Permeability through the blood brain barrier: incorporation into bovine cerebral capillary endothelial cells; assay type: in vitro ADME; settings: test compound 1 μM, 15 minutes, ethanol extraction, HPLC
Protocol: Bovine cerebral capillary endothelial cells were cultured on a 100 mm diameter plate (coated with collagen I) to obtain confluency. The cells were cultured for 15 minutes in an incorporation media (141 mM NaCl, 4 mM KCl, 2 mM CaCl2, 1 mM […], 10 mM HEPES, 10 mM D-glucose) containing the test compound (1 μM), to incorporate the test compound into the cells. Then, the test compound incorporated into the cells was extracted with ethanol extraction, and quantified by HPLC. The rate of incorporation was calculated with the equation below. amount of test compound in the ethanol-extracted fraction/amount of test compound in the incorporation solution×100(%)

[3] = tested on: Mouse neuroblastoma Neuro2A cells; test: Promotion activity on the neurite outgrowth (2): length of neurite per cell; assay type: cell-based
Protocol: as §1
The cells used and the performed culture method were identical to those in Reference example (1). After being cultured in a media containing the test compound for 24 hours, microscope photographs were taken with a 20× lens. […] Using image processing software, the area covered by the neurites were calculated, and, since the thickness used to mark the neurite was uniform, the analysis was performed considering that the area was proportional to the length, and allowing to compute the length of neurite per cell.

[4] = tested on: Wistar male rats, model for Alzheimer's disease by the continuous intracerebroventricular administration of β-amyloid proteins; test: Step-through passive avoidance test in rats given β-amyloid protein continuously into the cerebral ventricle; assay type: in vivo, rat; settings: Examples 44-47, β-amyloid protein alone 300 pmol/day, continuous intracerebroventricular by osmotic pump
From the text: A step-through passive avoidance instrument made of two chambers separated by a guillotine door was used as the experimental apparatus. One chamber is an illuminated chamber made of transparent acrylic boards (floor: 15 cm×25 cm, height: 15 cm), the other chamber is a dark chamber made of black acryl boards (same dimensions). In addition, the floor of the dark chamber was equipped with a grid made of 4 mm diameter stainless steel pieces separated by 15 mm spacing. The grid was connected to an apparatus for delivering electric shocks (shock generator scrambler).
First, the guillotine door was opened for one minute to let a rat freely explore the interior of the apparatus. Then, for acquisition trials, the door was closed and the rat was put into the illuminated chamber. 30 seconds later, the door was opened and immediately after the four legs of the rat were put inside the dark chamber, the door was closed and an electric shock was delivered. The strength of the electric shock was 0.5 mA for 5 seconds. The training was repeated until the rat remained in the illuminated chamber for more than 120 seconds when the rat was placed in the illuminated chamber immediately after the electric shock and the door was opened in a similar way. 24 hours after the acquisition trials, the rat was put into the illuminating chamber for retention trials, 30 seconds after, the guillotine door was opened, and the time taken for the four legs of the rat to enter the dark chamber was measured (step-through latency). The maximum observation time during retention trials was set to 300 seconds.
(§2) 7 week old Wistar male rats (weight 220 to 250 g) were used (N=5 to 10).
β-amyloid protein (1–42) was dissolved in 35% acetonitrile-0.1% trifluoroacetic acid in water, injected in a mini-osmotic pump, which had been set to deliver 300 pmol/day (volume: 230 μL, flow: 0.5 μL/hour), and connected to a dental syringe needle through a polyethylene tube. Animals in control group were connected to a pump to which β-amyloid protein (40–1) orvehicleonly was injected. […]

[5] = tested on: Wistar male rats, model for Alzheimer's disease by the continuous intracerebroventricular administration of β-amyloid proteins; test: Y-maze test (spontaneous alternation behavior test) in rats given β-amyloid protein continuously into the cerebral ventricle; assay type: in vivo, rat; settings: Examples 48-51, β-amyloid protein alone 300 pmol/day, continuous intracerebroventricular by osmotic pump
Protocol: A Y-shaped maze made by connecting three arms having a length of 35 cm each, a wall height of 25 cm and a floor width of 10 cm at an angle of 120° with respect to each other. The apparatus was settled on the laboratory floor.
A rat was placed at the extremity of one of the arms, was allowed to freely explore the maze for 8 minutes, and a record was taken of the order in which the arms were explored by the rat. By calling (A) the “Total arm entries”, and among them, by calling (B) the “Number of spontaneous alternations” which is the number of cases where 3 different arms were selected in sequence, the “Percentage of spontaneous alternations” was calculated with: (B/(A−2))×100.
as §2
β-amyloid protein (1–42) was dissolved in 35% acetonitrile-0.1% trifluoroacetic acid in water, injected in a mini-osmotic pump, which had been set to deliver 300 pmol/day (volume: 230 μL, flow: 0.5 μL/hour), and connected to a dental syringe needle through a polyethylene tube. Animals in control group were connected to a pump to which β-amyloid protein (40–1) orvehicleonly was injected. After anesthetizing the rats with pentobarbital (50 mg/Kg, i.p.), an incision was performed in each of their scalps, and following the brainatlas, holes were drilled in the cranium. […]

[6] = listed as β-amyloid protein (1-42)
[7] = listed as β-amyloid protein (1–42)

## CCCC[C@](C)(O)C/C=C/[C@@H]1[C@H]2CC(CCCCC(=O)O)=C[C@H]2C[C@H]1O [Test compound B]
[1]; Example 56, 24 hours, 10 μM
  Promotion activity on the neurite outgrowth (value relative to PGE1): 1.63
[1]; Example 57, 24 hours, 0.1 μM (PGE1 at 10 μM)
  Promotion activity on the neurite outgrowth (value relative to PGE1): 1.12
[2]; Example 61
  Rate of incorporation into bovine capillary endothelial cells (mean value of two experiments): below detection limit
[2]; Example 62
  Rate of incorporation into bovine capillary endothelial cells (mean value of two experiments): below detection limit

## CCCCC[C@H](O)/C=C/[C@H]1[C@H](O)CC(=O)[C@@H]1CCCCCCC(=O)O [PGE1]
[3]; Example 53, 24 hours, 1 nM
  Length of neurite per single cell (pixel/cell) mean value ± standard error: 14.2 ± 1.5 pixel/cell
[3]; Example 55, 24 hours, 100 nM
  Length of neurite per single cell (pixel/cell) mean value ± standard error: 5.7 ± 1.03 pixel/cell
[1]; Example 52, 24 hours
  Proportion of cells with neurite (%) mean value ± standard error: 26.0 ± 3.0%
[1]; Example 54, 24 hours
  Proportion of cells with neurite (%) mean value ± standard error: 19.5 ± 1.9%
[1]; Example 56, 24 hours, 10 μM
  Promotion activity on the neurite outgrowth (value relative to PGE1): 1.00
[1]; Example 57, 24 hours, 10 μM
  Promotion activity on the neurite outgrowth (value relative to PGE1): 1.00
[1]; Example 58, 24 hours, 10 μM
  Promotion activity on the neurite outgrowth (value relative to PGE1): 1.00

## Cc1cccc(C[C@@H](O)/C=C/[C@@H]2[C@H]3CC(CCCCCN4CCCC4)=C[C@H]3C[C@H]2O)c1 [Test compound C]
[1]; Example 56, 24 hours, 10 μM
  Promotion activity on the neurite outgrowth (value relative to PGE1): 1.15

## β-amyloid protein(1-42): β-amyloid protein (1–42) given continuously into the cerebral ventricle by mini-osmotic pump to lower learning and memory in the rat model
[4]
  Time taken to move into the dark chamber during retention trials mean value ± standard error: 140.2 ± 53.8 (n = 5) seconds and 132.8 ± 58.1 (n = 5) seconds
[4]; [6]
  Time taken to move into the dark chamber during retention trials mean value ± standard error: 191.7 ± 49.0 s
[4]; [7]
  Time taken to move into the dark chamber during retention trials mean value ± standard error: a decrease in the ability of learning and memory was observed
[5]; [6]
  Occurrence of spontaneous alternation behavior mean value ± standard error: 65.6 ± 3.4% and 66.5 ± 4.7% and 59.1 ± 3.0%
[5]; [7]
  Occurrence of spontaneous alternation behavior mean value ± standard error: a decrease in the ability of learning and memory was observed

## CCCC[C@](C)(O)C/C=C/[C@@H]1[C@H]2CC(CCCCCN(C)C)=C[C@H]2C[C@H]1O [Test compound E]
[1]; Example 56, 24 hours, 10 μM
  Promotion activity on the neurite outgrowth (value relative to PGE1): 1.58

## Cc1cccc(C[C@H](O)/C=C/[C@@H]2[C@H]3CC(CCCCCN(C)C)=C[C@H]3C[C@H]2O)c1 [Test compound D]
[1]; Example 56, 24 hours, 10 μM
  Promotion activity on the neurite outgrowth (value relative to PGE1): 1.31
